Experimental findings from article PMC6859854 (2019) are described below.

For the experiment, the system named is 75 nadA (RNA, riboswitch) GGGUUUGGUUGCAACAUCCCCGUGGGUUGGGUGAUGGCUCCAAUCAGAGCCGGAACAGCGAAUCCACUGCAACCGUGA
Nature of the experiment: in-line probing. As to conditions: 20 mM Mg2+, 100 mM K+; 50 mM Tris-HCl pH 8.3, 23 °C, 42–72 h; apparent.

As to `NC(=O)c1ccc[n+]([C@@H]2O[C@H](COP(=O)(O)OP(=O)(O)OC[C@H]3O[C@@H](n4cnc5c(N)ncnc54)[C@H](O)[C@@H]3O)[C@@H](O)[C@H]2O)c1`, the KD was ~ 90 μM.
